Source: ChEMBL document CHEMBL1135808, “A new type of mixed anhydride and its applications to the synthesis of 7-substituted 8-chloro-5,5-dioxoimidazo[1,2-b][1,4,2]benzodithiazines with in vitro antitumor activity” (2002)
Activity calls are given as the source filed them. No cut-off for these calls is given here.

What was measured:
[1] = system: Tumor Cell line; assay: In vitro inhibition of 50% cell growth was reported as log of molar concentration for 54 cell lines; Inactive; type: functional, cell-based; conditions: Homo sapiens
[2] = system: Tumor Cell line; assay: In vitro total growth inhibition for 50 cell lines was reported as log of molar concentration; Inactive; type: functional, cell-based; conditions: Homo sapiens
[3] = system: Tumor Cell line; assay: Log of molar concentration leading to 50% cell death was reported; Inactive; type: functional, cell-based; conditions: Homo sapiens
[4] = system: Tumor Cell line; assay: Log of molar concentration leading to 50% cell death was reported; type: functional; conditions: Homo sapiens, read-out: Log LC50 (the source's name) (converted)
[5] = system: Tumor Cell line; assay: In vitro total growth inhibition for 50 cell lines was reported as log of molar concentration; type: functional, Homo sapiens
[6] = system: Tumor Cell line; assay: In vitro inhibition of 50% cell growth was reported as log of molar concentration for 54 cell lines.; type: functional; conditions: Homo sapiens
[7] = system: Tumor Cell line; assay: In vitro inhibition of 50% cell growth was reported as log of molar concentration for 46 cell lines.; type: functional; conditions: Homo sapiens
[8] = system: Tumor Cell line; assay: In vitro inhibition of 50% cell growth was reported as log of molar concentration for 50 cell lines.; type: functional; conditions: Homo sapiens
[9] = system: Tumor Cell line; assay: In vitro inhibition of 50% cell growth was reported as log of molar concentration for 58 cell lines.; type: functional; conditions: Homo sapiens
[10] = system: Tumor Cell line; assay: Log of molar concentration leading to 50% cell death was reported for 50 cell lines; type: functional; conditions: Homo sapiens, read-out: Log LC50 (the source's name) (converted)
[11] = system: Tumor Cell line; assay: In vitro inhibition of 50% cell growth was reported as log of molar concentration for 56 cell lines.; type: functional; conditions: Homo sapiens
[12] = system: Tumor Cell line; assay: In vitro inhibition of 50% cell growth was reported as log of molar concentration for 57 cell lines.; type: functional; conditions: Homo sapiens

Compound | IA [1] | IA [2] | IA [3] | CC50 [4] [µM] | Log GTI [5] | further results
O=C(c1cc2c(cc1Cl)Sc1nccn1S2(=O)=O)N1c2ccccc2C=Cc2ccccc21 | inactive | inactive | inactive | – | – | –
O=C(Nc1ccccc1C(=O)Nc1ccccc1)c1cc2c(cc1Cl)Sc1nccn1S2(=O)=O | inactive | inactive | inactive | – | – | –
O=C1c2ccccc2/N=C(/c2cc3c(cc2Cl)Sc2nccn2S3(=O)=O)OS(=O)(=O)N1c1ccccc1 | – | – | – | 91.2 | -4.04 | GI50 [6]: 81.3 µM
O=c1c2ccccc2nc(-c2cc3c(cc2Cl)Sc2nccn2S3(=O)=O)n1-c1ccccc1 | – | – | – | 85.1 | -4.07 | GI50 [7]: 89.1 µM
Cc1cccnc1NC(=O)c1cc2c(cc1Cl)Sc1nccn1S2(=O)=O | inactive | inactive | inactive | – | – | –
O=C(Nc1ccc2cc3ccccc3cc2c1)c1cc2c(cc1Cl)Sc1nccn1S2(=O)=O | – | – | – | – | -4.52 | GI50 [8]: 87.1 µM
O=C(Nc1ccccn1)c1cc2c(cc1Cl)Sc1nccn1S2(=O)=O | – | – | – | 58.9 | -4.02 | GI50 [9]: 70.8 µM
O=C(Oc1c(-c2ccccc2)oc2ccccc2c1=O)c1cc2c(cc1Cl)Sc1nccn1S2(=O)=O | inactive | inactive | inactive | – | – | –
Cc1ccnc(NC(=O)c2cc3c(cc2Cl)Sc2nccn2S3(=O)=O)c1 | inactive | inactive | inactive | – | – | –
O=C(Nc1ccc2scnc2c1)c1cc2c(cc1Cl)Sc1nccn1S2(=O)=O | inactive | inactive | inactive | – | – | –
O=C(Nc1cccc2cnccc12)c1cc2c(cc1Cl)Sc1nccn1S2(=O)=O | – | – | – | – | -4.04 | CC50 [10]: 100 µM; GI50 [11]: 39.8 µM
Cc1ccc2cc(NC(=O)c3cc4c(cc3Cl)Sc3nccn3S4(=O)=O)ccc2n1 | – | – | – | 100 | -4.06 | GI50 [12]: 33.9 µM
